Earlier results on one compound are cited in patent publication US20090241221A1, “TANDEM REAPEAT DNA CONSTRUCTS PRODUCING PROTEINS THAT ATTACK PLANT PATHOGENIC VIRUSES, FUNGI, AND BACTERIA BY DISRUPTING TRANSCRIPTION FACTORS ESSENTIAL FOR REPLICATION THEREOF IN PLANTS” (priority 2008, published 2009).

For the data set, the system named is Magnaporthe grisea. As to conditions: PA treated plants; doses in the range of 0.5 mg/mL; cited from earlier work.

In the case of `O=C(O)c1ccccn1` [picolinic acid, 2-pyridine carboxylic acid], the “resistance against M. grisea” value is “enhanced”.
